How the values were obtained:
Type in all cases: in vivo
[1] = test system: duck salad (Heteranthera limosa); experiment: Test C flooded paddy test; conditions: for Ducksalad plant response rating: Flooded Paddy, scale 0 to 100, 0 no effect, 100 complete control; for Plant response rating, Ducksalad: flooded paddy test, scale 0 to 100 (0 no effect, 100 complete control)
How it was run: (§1)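 Visually assessed vs untreated controls 12–14 d post-treatment (greenhouse). Flooded paddy plants were at the 2-leaf stage; scale 0 = no effect, 100 = complete control.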

rice (Oryza saliva) = experiment: Test C flooded paddy test; conditions: for Rice plant response rating: Flooded Paddy, scale 0 to 100, 0 no effect, 100 complete control; for Plant response rating, Rice: flooded paddy test, scale 0 to 100 (0 no effect, 100 complete control)
How it was run: as §1

[2] = test system: barnyardgrass (Echinochloa crus-galli); experiment: Test C flooded paddy test; conditions: for Barnyardgrass plant response rating: Flooded Paddy, scale 0 to 100, 0 no effect, 100 complete control; for Plant response rating, Barnyardgrass: flooded paddy test, scale 0 to 100 (0 no effect, 100 complete control)
How it was run: as §1

[3] = test system: smallflower flatsedge (Cyperus difformis); experiment: Test C flooded paddy test; conditions: for Flatsedge plant response rating: Flooded Paddy, scale 0 to 100, 0 no effect, 100 complete control; for Plant response rating, Flatsedge: flooded paddy test, scale 0 to 100 (0 no effect, 100 complete control)
How it was run: as §1

[4] = test system: yellow nutsedge (Cyperus esculentus); experiment: Test C preemergence
How it was run: (§2)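 Seeds are planted and treated before emergence; for the postemergence test, plants at 1- to 4-leaf stage (2–18 cm) receive the same formulation, a solvent blend containing surfactant. Plants stay in the greenhouse 12–14 days, then response is scored visually from 0 (none) to 100 (complete control).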

[5] = test system: woolly cupgrass (Eriochloa villosa); experiment: Test C preemergence
How it was run: as §2

[6] = test system: common ragweed (Ambrosia elatior); experiment: Test C preemergence
How it was run: as §2

[7] = test system: morningglory (Ipomoea hederacea); experiment: Test C preemergence
How it was run: as §2

[8] = test system: Surinam grass (Brachiaria decumbens); experiment: Test C preemergence
How it was run: as §2

[9] = test system: johnsongrass (Sorghum halepense); experiment: Test C preemergence
How it was run: as §2

Nightshade = experiment: Test C preemergence
[10] = test system: pigweed (Amaranthus retroflexus); experiment: Test C preemergence
How it was run: as §2

[11] = test system: lambsquarters (Chenopodium album); experiment: Test C preemergence
How it was run: as §2

[12] = test system: giant foxtail (Setaria faberii); experiment: Test C preemergence
How it was run: as §2

corn (Zea mays) = experiment: Test C preemergence
How it was run: as §2

[13] = test system: velvetleaf (Abutilon theophrasti); experiment: Test B preemergence
How it was run: (§3)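 Visual injury scores, 0 = no effect to 100 = complete control, assigned against controls after 13 to 15 days in the greenhouse. Compounds formulated in non-phytotoxic solvent plus surfactant and applied to soil after planting (pre) or onto foliage of 1- to 4-leaf plants (post).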

[14] = test system: barnyardgrass (Echinochloa crus-galli); experiment: Test B preemergence
How it was run: as §3

Sunflower = experiment: Test C preemergence; conditions: Rate 62 g/ha, scale 0 to 100
[15] = Rate 125 g/ha, scale 0 to 100, 0 no effect, 100 complete control
[16] = preemergence, Rate 62 g/ha, scale 0 to 100
[17] = preemergence, Rate 500 g/ha, visual evaluation after 12 to 14 days
[18] = preemergence, Rate 250 g/ha, scale 0 to 100, 0 no effect, 100 complete control
[19] = Preemergence, Rate 500 g/ha, scale 0 to 100, 0 no effect, 100 complete control
[20] = preemergence, Rate 125 g/ha, scale of 0 to 100 where 0 is no effect and 100 is complete control, 13 to 15 days

For `CCC(C)c1ccn(C2CCN(c3ccc(Cl)c(OC)c3)C2=O)n1` (stereo not shown) [Compound 119], which “Ducksalad plant response rating” value ([1]; Rate 250 g/ha) is on record?
The value was 90.

And the “Ducksalad plant response rating” value ([1]; Rate 500 g/ha)?
Its value is 100.

What about the “Plant response rating, Ducksalad” value ([1]; Rate 62 g/ha) of the same molecule?
Its value is 0.

What about the “Plant response rating, Ducksalad” value ([1]; Rate 125 g/ha) of the same molecule?
Its value is 20.

And the “Rice plant response rating” value (rice (Oryza saliva); Rate 250 g/ha)?
Its value is 50.

And the “Rice plant response rating” value (rice (Oryza saliva); Rate 500 g/ha)?
The value was 50.

And the “Plant response rating, Rice” value (rice (Oryza saliva); Rate 62 g/ha)?
The value was 20.

What about the “Plant response rating, Rice” value (rice (Oryza saliva); Rate 125 g/ha) of the same molecule?
The value was 40.

What about the “Barnyardgrass plant response rating” value ([2]; Rate 250 g/ha) of the same molecule?
Its value is 70.

And the “Barnyardgrass plant response rating” value ([2]; Rate 500 g/ha)?
The value was 80.

What about the “Plant response rating, Barnyardgrass” value ([2]; Rate 62 g/ha) of the same molecule?
Its value is 30.

What about the “Plant response rating, Barnyardgrass” value ([2]; Rate 125 g/ha) of the same molecule?
Its value is 70.

And the “Flatsedge plant response rating” value ([3]; Rate 250 g/ha)?
Its value is 100.

And the “Flatsedge plant response rating” value ([3]; Rate 500 g/ha)?
Its value is 100.

And the “Plant response rating, Flatsedge” value ([3]; Rate 62 g/ha)?
The value was 0.

And the “Plant response rating, Flatsedge” value ([3]; Rate 125 g/ha)?
Its value is 100.

And the “Plant response rating, Nutsedge” value [4, 15]?
The value was 20.

And the “Plant response rating, Nutsedge” value [4, 16]?
Its value is 0.

And the “Plant response rating (0 to 100), Nutsedge” value [4, 17]?
Its value is 30.

And the “Plant response rating, Nutsedge” value [4, 18]?
Its value is 30.

And the “Plant response rating, Cupgrass, Woolly” value [5, 15]?
The value was 100.

What about the “Plant response rating, Cupgrass, Woolly” value [5, 16] of the same molecule?
The value was 100.

What about the “Plant response rating (0 to 100), Cupgrass, Woolly” value [5, 17] of the same molecule?
Its value is 100.

And the “Plant response rating, Cupgrass, Woolly” value [5, 18]?
Its value is 100.

And the “Plant response rating, Ragweed, Common” value [6, 15]?
Its value is 100.

And the “Plant response rating, Ragweed, Common” value [6, 16]?
The value was 100.

And the “Plant response rating (0 to 100), Ragweed, Common” value [6, 17]?
The value was 100.

And the “Plant response rating, Ragweed, Common” value [6, 18]?
The value was 100.

What about the “Plant response rating, Morningglory” value [7, 15] of the same molecule?
The value was 90.

What about the “Plant response rating, Morningglory” value [7, 16] of the same molecule?
The value was 60.

What about the “Plant response rating (0 to 100), Morningglory” value [7, 17] of the same molecule?
Its value is 100.

What about the “Plant response rating, Morningglory” value [7, 18] of the same molecule?
The value was 100.

And the “Plant response rating, Surinam grass” value [8, 15]?
Its value is 100.

What about the “Plant response rating, Surinam grass” value [8, 16] of the same molecule?
Its value is 100.

And the “Plant response rating (0 to 100), Surinam grass” value [8, 17]?
The value was 100.

What about the “Plant response rating, Surinam grass” value [8, 18] of the same molecule?
The value was 100.

What about the “Plant response rating, Johnsongrass” value [9, 15] of the same molecule?
Its value is 100.

And the “Plant response rating, Johnsongrass” value [9, 16]?
Its value is 90.

And the “Plant response rating (0 to 100), Johnsongrass” value [9, 17]?
Its value is 100.

And the “Plant response rating, Johnsongrass” value [9, 18]?
The value was 100.

And the “Plant response rating, Nightshade” value (Nightshade; Rate 62 g/ha, scale 0 to 100)?
The value was 100.

What about the “Plant response rating, Nightshade” value (Nightshade; [15]) of the same molecule?
The value was 100.

What about the “Plant response rating, Nightshade” value (Nightshade; Rate 250 g/ha, scale 0 to 100, 0 no effect, 100 complete control) of the same molecule?
Its value is 100.

And the “Plant response rating, Pigweed” value [10, 15]?
The value was 50.

And the “Plant response rating, Pigweed” value [10, 16]?
Its value is 50.

And the “Plant response rating (0 to 100), Pigweed” value [10, 17]?
Its value is 100.

And the “Plant response rating, Pigweed” value [10, 18]?
Its value is 90.

And the “Plant response rating, Lambsquarters” value [11, 15]?
The value was 100.

What about the “Plant response rating, Lambsquarters” value [11, 16] of the same molecule?
Its value is 100.

And the “Plant response rating (0 to 100), Lambsquarters” value [11, 17]?
Its value is 100.

What about the “Plant response rating, Lambsquarters” value [11, 18] of the same molecule?
Its value is 100.

And the “Plant response rating, Foxtail, Giant” value [12, 15]?
The value was 100.

What about the “Plant response rating, Foxtail, Giant” value [12, 16] of the same molecule?
Its value is 50.

What about the “Plant response rating (0 to 100), Foxtail, Giant” value [12, 17] of the same molecule?
Its value is 100.

And the “Plant response rating, Foxtail, Giant” value [12, 18]?
Its value is 90.

What about the “Plant response rating, Corn” value (corn (Zea mays); [15]) of the same molecule?
Its value is 30.

And the “Plant response rating, Corn” value (corn (Zea mays); [16])?
The value was 30.

And the “Plant response rating (0 to 100), Corn” value (corn (Zea mays); [17])?
Its value is 90.

What about the “Plant response rating, Corn” value (corn (Zea mays); [18]) of the same molecule?
The value was 60.

And the “Plant response rating, Velvetleaf” value [13, 19]?
Its value is 70.

And the “Plant response rating, Velvetleaf” value [13, 20]?
Its value is 30.

What about the “Plant response rating, Barnyardgrass” value [14, 19] of the same molecule?
The value was 100.

What about the “Plant response rating, Barnyardgrass” value [14, 20] of the same molecule?
Its value is 100.

And the “Plant response rating, Sunflower” value (Sunflower)?
The value was 40.
